From patent publication US20260374756A1, “HETEROCYCLIC COMPOUNDS AS INHIBITORS OF MONOACYLGLYCEROL LIPASE (MAGL)” (Hoffmann-La Roche Inc., priority 2022, published 2026) come the findings set out here.

What is called IC50 is the midpoint of a concentration-inhibition curve.

This assay addresses T1, hMAGL (Homo sapiens, UniProt Q99685).
T1 sequence (Q99685 1-303): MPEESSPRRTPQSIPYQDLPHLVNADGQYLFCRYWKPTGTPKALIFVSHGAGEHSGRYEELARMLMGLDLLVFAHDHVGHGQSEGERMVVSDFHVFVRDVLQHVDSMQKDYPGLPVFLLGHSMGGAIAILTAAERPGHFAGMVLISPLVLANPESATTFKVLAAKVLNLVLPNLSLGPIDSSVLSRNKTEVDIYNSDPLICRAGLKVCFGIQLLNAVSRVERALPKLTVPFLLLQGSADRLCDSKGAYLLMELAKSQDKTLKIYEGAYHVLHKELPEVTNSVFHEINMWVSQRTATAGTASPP
The assay can be described thus: 2-AG assay: MAGL inhibition, hydrolysis of 2-arachidonoylglycerol to arachidonic acid followed by mass spectrometry. It counts as biochemical. In short, it runs like this: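 MAGL preincubated with compound 15 min at RT in 50 mM Tris, 1 mM EDTA, 0.01% Tween-20, 2.5% DMSO; reaction started with 8 μM 2-AG (final), […], 30 min at RT. Quenched with acetonitrile containing d8-arachidonic acid; arachidonic acid quantified by RapidFire SPE-triple quad MS as arachidonic acid/d8 ratio.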
On to `O=C(N1CC2(CC(n3cnc(C(F)(F)F)n3)C2)C1)N1CC2(CN(Cc3ncc(C(F)(F)F)[nH]3)C2)C1` [Example 231, [6-[[5-(trifluoromethyl)-1H-imidazol-2-yl]methyl]-2,6-diazaspiro[3.3]heptan-2-yl]-[6-[3-(trifluoromethyl)-1,2,4-triazol-1-yl]-2-azaspiro[3.3]heptan-2-yl]methanone], for which the IC50 turned out to be 0.26 µM. The same measure for `O=C(N1CC2(CC(n3cnc(C4CC4)n3)C2)C1)N1CC2(CN(Cc3ncc(C(F)(F)F)[nH]3)C2)C1` [Example 232, [6-(3-cyclopropyl-1,2,4-triazol-1-yl)-2-azaspiro[3.3]heptan-2-yl]-[6-[[5-(trifluoromethyl)-1H-imidazol-2-yl]methyl]-2,6-diazaspiro[3.3]heptan-2-yl]methanone]: 0.0798 µM. The same measure for `O=C(N1CC2(CC(n3cnc(C(F)(F)F)n3)C2)C1)N1CC2(CN(Cc3nccn3CC(F)(F)F)C2)C1` [Example 233, [6-[[1-(2,2,2-trifluoroethyl)imidazol-2-yl]methyl]-2,6-diazaspiro[3.3]heptan-2-yl]-[6-[3-(trifluoromethyl)-1,2,4-triazol-1-yl]-2-azaspiro[3.3]heptan-2-yl]methanone]: 0.176 µM; for `O=C(N1CC2(CC(n3cnc(C4CC4)n3)C2)C1)N1CC2(CN(Cc3nccn3CC(F)(F)F)C2)C1` [Example 234, [6-(3-cyclopropyl-1,2,4-triazol-1-yl)-2-azaspiro[3.3]heptan-2-yl]-[6-[[1-(2,2,2-trifluoroethyl)imidazol-2-yl]methyl]-2,6-diazaspiro[3.3]heptan-2-yl]methanone]: 0.0413 µM. In turn, `O=C(N1CC2(CC(n3cnc(C(F)(F)F)n3)C2)C1)N1CC2(CN(Cc3nccn3C(F)(F)F)C2)C1` [Example 235, [6-[[1-(trifluoromethyl)imidazol-2-yl]methyl]-2,6-diazaspiro[3.3]heptan-2-yl]-[6-[3-(trifluoromethyl)-1,2,4-triazol-1-yl]-2-azaspiro[3.3]heptan-2-yl]methanone] returned an IC50 of 0.0687 µM. Turning to `O=C(N1CC2(CC(n3cnc(C4CC4)n3)C2)C1)N1CC2(CN(Cc3nccn3C(F)(F)F)C2)C1` [Example 236, [6-(3-cyclopropyl-1,2,4-triazol-1-yl)-2-azaspiro[3.3]heptan-2-yl]-[6-[[1-(trifluoromethyl)imidazol-2-yl]methyl]-2,6-diazaspiro[3.3]heptan-2-yl]methanone], inhibition was half-maximal at 0.0181 µM (IC50). Next, `O=C(N1CC2(CC(n3cnc(C(F)(F)F)n3)C2)C1)N1CC2(CN(Cc3nc[nH]c3C(F)(F)F)C2)C1` [Example 237, [6-[[5-(trifluoromethyl)-1H-imidazol-4-yl]methyl]-2,6-diazaspiro[3.3]heptan-2-yl]-[6-[3-(trifluoromethyl)-1,2,4-triazol-1-yl]-2-azaspiro[3.3]heptan-2-yl]methanone]: 0.158 µM; `O=C(N1CC2(CC(n3cnc(C4CC4)n3)C2)C1)N1CC2(CN(Cc3nc[nH]c3C(F)(F)F)C2)C1` [Example 238, [6-(3-cyclopropyl-1,2,4-triazol-1-yl)-2-azaspiro[3.3]heptan-2-yl]-[6-[[5-(trifluoromethyl)-1H-imidazol-4-yl]methyl]-2,6-diazaspiro[3.3]heptan-2-yl]methanone]: 0.0428 µM.

For `O=C(N1CC2(CC(n3cnc(C(F)(F)F)n3)C2)C1)N1CC2(CN(Cc3nc(C4CC4)cs3)C2)C1` [Example 239, [6-[(4-cyclopropylthiazol-2-yl)methyl]-2,6-diazaspiro[3.3]heptan-2-yl]-[6-[3-(trifluoromethyl)-1,2,4-triazol-1-yl]-2-azaspiro[3.3]heptan-2-yl]methanone], the IC50 worked out at 0.0185 µM. In turn, `O=C(N1CC2(CC(n3cnc(C4(O)CC4)n3)C2)C1)N1CC2(CN(Cc3nc(C4CC4)cs3)C2)C1` [Example 240, [6-[(4-cyclopropylthiazol-2-yl)methyl]-2,6-diazaspiro[3.3]heptan-2-yl]-[6-[3-(1-hydroxycyclopropyl)-1,2,4-triazol-1-yl]-2-azaspiro[3.3]heptan-2-yl]methanone] displayed an IC50 of 0.232 µM. Next, `O=C(N1CC2(CC(n3cnc(C(F)(F)F)n3)C2)C1)N1CC2(CN(Cc3cc(C(F)(F)F)[nH]n3)C2)C1` [Example 241, [6-[[5-(trifluoromethyl)-1H-pyrazol-3-yl]methyl]-2,6-diazaspiro[3.3]heptan-2-yl]-[6-[3-(trifluoromethyl)-1,2,4-triazol-1-yl]-2-azaspiro[3.3]heptan-2-yl]methanone]: 0.0187 µM; `O=C(N1CC2(CC(n3cnc(C4CC4)n3)C2)C1)N1CC2(CN(Cc3cc(C(F)(F)F)[nH]n3)C2)C1` [Example 242, [6-(3-cyclopropyl-1,2,4-triazol-1-yl)-2-azaspiro[3.3]heptan-2-yl]-[6-[[5-(trifluoromethyl)-1H-pyrazol-3-yl]methyl]-2,6-diazaspiro[3.3]heptan-2-yl]methanone]: 0.00373 µM. Next, `Cn1nnc(CN2CC3(C2)CN(C(=O)N2CC4(CC(n5cnc(C(F)(F)F)n5)C4)C2)C3)c1C(F)(F)F` [Example 243, [6-[[1-methyl-5-(trifluoromethyl)triazol-4-yl]methyl]-2,6-diazaspiro[3.3]heptan-2-yl]-[6-[3-(trifluoromethyl)-1,2,4-triazol-1-yl]-2-azaspiro[3.3]heptan-2-yl]methanone]: 0.0965 µM. The same measure for `Cn1nnc(CN2CC3(C2)CN(C(=O)N2CC4(CC(n5cnc(C6CC6)n5)C4)C2)C3)c1C(F)(F)F` [Example 244, [6-(3-cyclopropyl-1,2,4-triazol-1-yl)-2-azaspiro[3.3]heptan-2-yl]-[6-[[1-methyl-5-(trifluoromethyl)triazol-4-yl]methyl]-2,6-diazaspiro[3.3]heptan-2-yl]methanone]: 0.0229 µM; for `O=C(N1CC2(CC(n3cnc(C4CC4)n3)C2)C1)N1CC2(CN(Cc3nc(-c4ccccc4)no3)C2)C1` [Example 245, [6-(3-cyclopropyl-1,2,4-triazol-1-yl)-2-azaspiro[3.3]heptan-2-yl]-[6-[(3-phenyl-1,2,4-oxadiazol-5-yl)methyl]-2,6-diazaspiro[3.3]heptan-2-yl]methanone]: 0.0012 µM; for `Cn1ncc(OC2CC3(C2)CN(C(=O)N2CC4(CC(n5cnc(C(F)(F)F)n5)C4)C2)C3)c1C(F)(F)F` [Example 246, [6-[1-methyl-5-(trifluoromethyl)pyrazol-4-yl]oxy-2-azaspiro[3.3]heptan-2-yl]-[6-[3-(trifluoromethyl)-1,2,4-triazol-1-yl]-2-azaspiro[3.3]heptan-2-yl]methanone]: 0.00398 µM. For `Cn1ncc(OC2CC3(C2)CN(C(=O)N2CC4(CC(n5cnc(C6CC6)n5)C4)C2)C3)c1C(F)(F)F` [Example 247, [6-(3-cyclopropyl-1,2,4-triazol-1-yl)-2-azaspiro[3.3]heptan-2-yl]-[6-[1-methyl-5-(trifluoromethyl)pyrazol-4-yl]oxy-2-azaspiro[3.3]heptan-2-yl]methanone], the IC50 worked out at 0.00092 µM. Compared with the last compound, the IC50 is about 4.3-fold lower.

`O=C(N1CC2(CC(Oc3cnn(CC(F)(F)F)c3)C2)C1)N1CC2(CC(c3cc(C4CC4)n[nH]3)C2)C1` [Example 248, [6-(3-cyclopropyl-1H-pyrazol-5-yl)-2-azaspiro[3.3]heptan-2-yl]-[6-[1-(2,2,2-trifluoroethyl)pyrazol-4-yl]oxy-2-azaspiro[3.3]heptan-2-yl]methanone] yielded an IC50 of 0.019 µM. Compared with the last compound, the IC50 is about 21-fold higher. Next, `O=C(N1CC2(CC(Oc3cnn(CC(F)(F)F)c3)C2)C1)N1CC2(CC(n3cnc(C4CC4)n3)C2)C1` [Example 249, [6-(3-cyclopropyl-1,2,4-triazol-1-yl)-2-azaspiro[3.3]heptan-2-yl]-[6-[1-(2,2,2-trifluoroethyl)pyrazol-4-yl]oxy-2-azaspiro[3.3]heptan-2-yl]methanone]: 0.0108 µM.

`Cn1ncc(CN2CC3(C2)CN(C(=O)N2CC4(CC(n5cnc(C(F)(F)F)n5)C4)C2)C3)c1S(N)(=O)=O` [Example 250, 2-methyl-4-[[2-[6-[3-(trifluoromethyl)-1,2,4-triazol-1-yl]-2-azaspiro[3.3]heptane-2-carbonyl]-2,6-diazaspiro[3.3]heptan-6-yl]methyl]pyrazole-3-sulfonamide] had an IC50 of 0.969 µM. The same measure for `Cn1ncc(CN2CC3(C2)CN(C(=O)N2CC4(CC(n5cnc(C6CC6)n5)C4)C2)C3)c1S(N)(=O)=O` [Example 251]: 0.368 µM. Next, `CC(C)(C)c1c[nH]c(CN2CC3(C2)CN(C(=O)N2CC4(CC(n5cnc(C(F)(F)F)n5)C4)C2)C3)n1` [Example 252, [6-[(4-tert-butyl-1H-imidazol-2-yl)methyl]-2,6-diazaspiro[3.3]heptan-2-yl]-[6-[3-(trifluoromethyl)-1,2,4-triazol-1-yl]-2-azaspiro[3.3]heptan-2-yl]methanone]: 0.117 µM; `CC(C)(C)c1c[nH]c(CN2CC3(C2)CN(C(=O)N2CC4(CC(n5cnc(C6CC6)n5)C4)C2)C3)n1` [Example 253, [6-[(4-tert-butyl-1H-imidazol-2-yl)methyl]-2,6-diazaspiro[3.3]heptan-2-yl]-[6-(3-cyclopropyl-1,2,4-triazol-1-yl)-2-azaspiro[3.3]heptan-2-yl]methanone]: 0.0386 µM. Next, `O=C(N1CC2(CC(Cc3cn(CC(F)(F)F)nn3)C2)C1)N1CC2(CC(n3cnc(C4(O)CC4)n3)C2)C1` [Example 254, [6-[3-(1-hydroxycyclopropyl)-1,2,4-triazol-1-yl]-2-azaspiro[3.3]heptan-2-yl]-[6-[[1-(2,2,2-trifluoroethyl)triazol-4-yl]methyl]-2-azaspiro[3.3]heptan-2-yl]methanone]: 0.0449 µM.
